Measurements reported in patent US10123540B1, “Disinfectant material” (PEN Inc., priority 2014, dated 2018).

Assays:
[1] = test system: feline calcivirus ATCC VR-782; test: Antiviral surface test, Modified ASTM E1053, limited to 10 minutes; settings: 20 mg/L in a water based solution applied to a surface; 10 minutes exposure; non-enveloped virus
Experimental: Copper ions (20 mg/L) in a water based solution were applied to a surface with the non-enveloped feline calcivirus ATCC VR-782. […] In our case we wanted to have an idea about the rate of killing and this is why we limited the test to 10 minutes.

[2] = test system: H1N1 Influenza A, Strain A-California; test: Towelette antiviral test, modified AATCC 100; settings: towelettes embedded with water based solution at 20 mg/L
Experimental: A number of other tests were performed against H1N1 Influenza A, Strain A-California, and Human Corona Virus 229E.

[3] = test system: Human Corona Virus 229E; settings: 10 minutes

Row | Molecule | reduction relative to the control [1] [%] | reduction vs time zero control [2] [%] | percent reduction [3] [%]
1 | [Cu+2] [Copper ions] | 82.22 | – | –
2 | copper iodide | – | 99.7 | 99.99
